Measured values published in article PMC4767720 (Drugs in R&D, 2016).

Legend:
syk = details: statement of the introduction, no reference given; cited from earlier work
[1] = Ketoconazole interaction study, plasma pharmacokinetics; type: in vivo, human
[2] = Safety and tolerability assessments in the three clinical studies; type: in vivo, human
[3] = Rifampicin interaction study, plasma pharmacokinetics; type: in vivo, human
[4] = Microsomal stability of R406 in human hepatic microsomes; type: in vitro ADME; details: R406 1 μM, 0.1 mg microsomal protein, NADPH 1 mM, 37 °C, pH 7.4
[5] = Verapamil interaction study, plasma pharmacokinetics; type: in vivo, human
[6] = 10 μM R406, 1 mg protein/mL, 15 min
[7] = R406, 80 mg fostamatinib + ketoconazole (P2), n=8
[8] = R406, 80 mg fostamatinib alone (P1), n=8
[9] = R406, 80 mg fostamatinib, ketoconazole 200 mg twice daily
[10] = R406 in plasma, single oral 80 mg fostamatinib alone (P1), n=8
[11] = R406, 150 mg fostamatinib + rifampicin (P2), n=15
[12] = R406, 150 mg fostamatinib alone (P1), n=15
[13] = R406 in plasma, single oral 150 mg fostamatinib alone (P1), n=15

## COc1cc(Nc2ncc(F)c(Nc3ccc4c(n3)N(COP(=O)(O)O)C(=O)C(C)(C)O4)n2)cc(OC)c1OC [Fostamatinib]
syk
  activity against syk compared with R406: much less active
[1]; 80 mg fostamatinib with ketoconazole-placebo or with ketoconazole
  plasma levels of R788: negligible
[1]; 80 mg fostamatinib with placebo or ketoconazole
  highest plasma concentration of R788 obtained in any subject: < 7 ng/mL
[1]; any subject
  time post-dose beyond which no quantifiable R788 (above 0.5 ng/mL) was obtained: 2 h
[2]; all three clinical studies, alone and in combination with a CYP3A4 inducer/inhibitor
  tolerability: well tolerated
[2]; any of the three studies
  deaths, serious AEs, withdrawals due to AEs, severe AEs: no deaths, serious AEs, withdrawals due to AEs or severe AEs
[2]; ketoconazole interaction study
  treatment-emergent AEs in subjects receiving fostamatinib and ketoconazole: No treatment-emergent AEs
[2]; ketoconazole interaction study, all treatments, N=8
  total AEs reported: eight
[2]; rifampicin interaction study, all arms, all mild
  total AEs recorded: four
[2]; verapamil interaction study
  AEs considered related to administration of fostamatinib: None
[2]; verapamil interaction study, one AE per treatment arm, one mild, two moderate
  total AEs reported: three

## COc1cc(Nc2ncc(F)c(Nc3ccc4c(n3)NC(=O)C(C)(C)O4)n2)cc(OC)c1OC [R406]
[1]; 80 mg fostamatinib, ketoconazole 200 mg twice daily
  increase in R406 exposure with ketoconazole co-administration: 2 fold
[1]; [7]
  tmax, median: 2.00 h
  t½, geometric mean (GCV %): 17.7 (31.9) h
[1]; [8]
  tmax, median: 1.25 h
  t½, geometric mean (GCV %): 13.6 (32.1) h
[1]; [9]
  average increase in AUC0–∞ after co-administration of ketoconazole: 102%
  average increase in Cmax after co-administration of ketoconazole: 37%
[1]; R406, fostamatinib alone
  average t½: 14.2 h
[1]; R406, fostamatinib plus ketoconazole
  tmax (value of the text, not the median): 1.69 h
[1]; R406, fostamatinib with ketoconazole co-administration
  average t½: 18.4 h
[1]; [10]
  AUC0–∞, geometric mean (GCV %): 3690 (19.9) ng·h/mL
  Cmax, geometric mean (GCV %): 325 (13.7) ng/mL
[3]; 150 mg fostamatinib, rifampicin 600 mg once daily
  reduction in R406 Cmax with rifampicin co-administration: ~60%
[3]; R406, 150 mg fostamatinib
  effect of rifampicin co-administration on tmax: no consistent effect
[3]; [11]
  tmax, median: 1.00 h
  t½, geometric mean (GCV %): 10.8 (38.6) h
[3]; [12]
  tmax, median: 2.00 h
  t½, geometric mean (GCV %): 15.0 (30.3) h
[3]; [13]
  AUC0–∞, geometric mean (GCV %): 6540 (48.5) ng·h/mL
  Cmax, geometric mean (GCV %): 573 (58.7) ng/mL
[4]
  microsomal half-life: 0.407 h
[5]; 150 mg fostamatinib
  effect of verapamil co-administration on R406 Cmax: no consistent effect
  effect of verapamil on R406 tmax: no consistent effect
[5]; 150 mg fostamatinib, verapamil 80 mg three times daily
  subjects with higher R406 AUC after verapamil co-administration: 10 of the 13
[5]; R406, 150 mg fostamatinib + verapamil (P2), n=13
  t½, geometric mean (GCV %): 19.1 (51.1) h
[5]; R406, 150 mg fostamatinib + verapamil (P2), n=14
  tmax, median: 1.50 h
[5]; [12]
  tmax, median: 1.48 h
  t½, geometric mean (GCV %): 13.5 (28.4) h
[5]; [13]
  AUC0–∞, geometric mean (GCV %): 6380 (36.1) ng·h/mL
  Cmax, geometric mean (GCV %): 588 (45.7) ng/mL
[6]
  major metabolite: para-O-demethylated R406, R529

## COc1cc(Nc2ncc(F)c(Nc3ccc4c(n3)NC(=O)C(C)(C)O4)n2)cc(OC)c1O [R529]
syk
  activity against syk compared with R406: much less active
